The source of these data is patent publication EP0388950A2, “New 1,3-dioxolan-4-yl derivatives of 2-picolylamine” (J. URIACH & CIA. S.A., priority 1989, dated 1990).

Assay [1] relates to platelet aggregation induced by PAF. Put plainly: Inhibition of platelet aggregation induced by PAF (rabbit platelet rich plasma, Born nephelometric technique). Format: cell-based, New Zealand albino rabbits. The following applies: Oryctolagus cuniculus, concentration needed to inhibit platelet aggregation by 50%, PAF (C₁₈) 16 nM final, read-out: IC₅₀. As for the experimental part:
Inhibition of platelet aggregation induced by PAF.
The blood is obtained by cardiac puncture of male New Zealand albino rabbits (between 2 and 2.5 Kg of weight) and coagulation is prevented by adding 1 part of 3.16% sodium citrate dihydrate in 9 parts of blood. The platelet rich plasma (PRP) is prepared by blood centrifugation at 250xg for 10 min. at 4°C and it is diluted with platelet poor plasma (PPP) by additional centrifugation at 3000xg for 10 min. The amount of platelets is adjusted to […]. The platelet aggregation induced by PAF (C₁₈; prepared in our laboratory) (16 nM, final) is determined by the Born nephelometric technique (J. Physiol., 1962, 162, 67) using a aggregometer Chrono-log 500. The activities of the inhibitors are expressed as IC₅₀, that is to say the concentration of the drug needed to inhibit the platelet aggregation by 50%.

In assay [2] the test system is hypotension induced by PAF. The assay can be described thus: Inhibition of the hypotensive effect induced by PAF in normotense rats. The assay is classed as in vivo, Sprage Dawley rats. The conditions noted are these: anesthetized male rats; compound given through the femoral vein 3 min before PAF (0.5 mcg/Kg, i.v.); average arterial pressure. As for the experimental part: Inhibition of the hypotensive effect induced by PAF in normotense rats.
Male Sprage Dawley rats, of 180-220 g of weight, anesthetized with sodium pentobarbital (50 mg/Kg, i.p. 1 mL/100 g) have been used. In order to measure the average arterial pressure, a polyethylene catheter is introduced into the carotid artery. The arterial pressure is recorded with the help of a transducer connected with a R611 Beckman polygraph. The tested compounds are administered through the femoral vein 3 min before the injection of PAF (0.5 mcg/Kg, i.v.).

For the molecule `CCCCCCCCCCCCCCCCCC1OCC(COC(=O)N(Cc2cccc[n+]2C)C(C)=O)O1.[I-]` (stereo not drawn) [Compound 3, 2-(N-Acetyl-N-(((2-heptadecyl-1,3-dioxolane-4-yl)methoxy)carbonyl)aminomethyl)-1-methylpyridinium iodide], the IC50 in assay [1] was determined as 2200 nM. Moreover, the CI₅₀ in assay [2] was 0.9 mg/Kg,i.v.
On the same counts, the results for `CCCCCCCCCCCCCCCCCC1OCC(COC(=O)N(Cc2cccc[n+]2CC)C(C)=O)O1.[I-]` (stereo not drawn) [Compound 4, 2-(N-acetyl-N-(((2-heptadecyl-1,3-dioxolane-4-yl)methoxy)carbonyl)aminomethyl)-1-ethylpyridinium iodide] are 210 nM and 0.2 mg/Kg,i.v.
Taken in the same sequence, the figures for `CCCCCCCCCCCCCCCCOCC1OCC(COC(=O)N(Cc2cccc[n+]2CC)C(C)=O)O1.[I-]` (stereo not drawn) [Compound 7, 2-(N-Acetyl-N-(((2-hexadecyloxymethyl-1,3-dioxolan-4-yl)methoxy)carbonyl)aminomethyl)-1-ethylpyridinium iodide] were less than 100 nM and <0.1 mg/Kg,i.v.
On the same counts, the results for `CCCCCCCCCCCCCCCCCCOCC1OCC(COC(=O)N(Cc2cccc[n+]2C)C(C)=O)O1.[I-]` (stereo not drawn) [Compound 10, 2-(N-Acetyl-N-(((2-octadecyloxymethyl-1,3-dioxolan-4-yl)methoxy)carbonyl)aminomethyl)-1-methylpyridinium iodide] are 1200 nM and 0.35 mg/Kg,i.v.
Consider `CCCCCCCCCCCCCCCCCCOCC1OCC(COC(=O)N(Cc2cccc[n+]2CC)C(C)=O)O1.[I-]` (stereo not drawn) [Compound 11, 2(N-Acetyl-N-(((2-octadecyloxymethyl-1,3-dioxolan-4-yl)methoxy)carbonyl)aminomethyl)-1-ethylpyridinium iodide], for which the IC50 in assay [1] was 160 nM. Also, in assay [2], the CI₅₀ is reported as <0.1 mg/Kg,i.v.
On the same counts, the results for `CCCCCCCCCCCCCCCNC(=O)OCC1OCC(COC(=O)N(Cc2cccc[n+]2CC)C(C)=O)O1.[I-]` (stereo not drawn) [Compound 14, 2(N-Acetyl-N-(((2-pentadecylcarbamoyloxymethyl-1,3-dioxolan-4-yl)methoxy)carbonyl)aminomethyl)-1-ethylpyridinium iodide] are less than 100 nM and <0.1 mg/Kg,i.v.
